Assay results as given in US20260184663A1, “INDENE COMPOUNDS, PHARMACEUTICAL COMPOSITIONS THEREOF, AND THEIR THERAPEUTIC APPLICATIONS” (NucMito Pharmaceuticals co. Ltd., priority 2022, published 2026).

What was measured:
Type in all cases: cell-based
[1] = system: alpha-smooth muscle actin (α-SMA); experiment: Inhibition of TGF-β induced expression of alpha-smooth muscle actin (α-SMA) in CFSC cells (western blot); settings: compound at 10 μM, TGF-β (10 ng/mL), 24 hours, band intensity vs TGF-β only
In short: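 Values are percent reduction of α-SMA band intensity relative to cells given TGF-β alone, quantified by Western blot densitometry with β-actin probed. Compound was applied at 10 μM alongside 10 ng/mL TGF-β to serum-free CFSC cultures for 24 h at 37 °C.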

[2] = system: A549 (lung adenocarcinoma); experiment: Antiproliferative activity (CCK-8 cell viability), A549; settings: Homo sapiens, 72 h, read-out: Antiproliferative activity in cancerous cells, A549 (inhibition of cell growth); for inhibition at 3.3 µM: Compound concentration: 3.3 μM; for inhibition at 10 µM: Compound concentration: 10 μM
In short: (§1)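 Cells grown in DMEM (HepG2, SW480), MEM (HeLa) or F-12K (A549), each with 10% FBS, then exposed to compound at 3.3, 10 or 30 μM for 72 h at 37 °C. CCK-8 absorbance at 450 nm; viability expressed as percent of DMSO-treated cells, graded as growth inhibition bands.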

[3] = system: B16F10 (malignant melanoma); experiment: Antiproliferative activity (CCK-8 cell viability), B16F10; settings: Mus musculus, 72 h, read-out: Antiproliferative activity in cancerous cells, B16F10 (inhibition of cell growth); for inhibition at 3.3 µM: B16-F10, Compound concentration: 3.3 μM; for inhibition at 10 µM: B16-F10, Compound concentration: 10 μM
In short: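 B16F10 melanoma cells grown in DMEM with 10% FBS were plated in 96-well plates at 2,000-5,000 cells/well. After attachment they were exposed to compound in medium for 72 h at 37° C. CCK-8 solution (10 μL) was then added, and after 4 h at 37° C absorbance was read at 450 nm.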

[4] = system: MDA-MB-231 (breast cancer); experiment: Antiproliferative activity (CCK-8 cell viability), MDA-MB-231; settings: Homo sapiens, 72 h, read-out: Antiproliferative activity in cancerous cells, MDA-MB-231 (inhibition of cell growth); for inhibition at 3.3 µM: Compound concentration: 3.3 μM; for inhibition at 10 µM: Compound concentration: 10 μM
In short: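 MDA-MB-231 breast cancer cells, grown in DMEM with 10% FBS, were plated in 96-well plates at 2,000-5,000 cells/well. Once attached, they were exposed to compound and incubated at 37° C. for 72 h. Viability was then measured with CCK-8 (10 μL per well, 4 h at 37° C.) by absorbance at 450 nm, relative to DMSO vehicle wells.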

HepG2 (liver cancer) = experiment: Antiproliferative activity (CCK-8 cell viability), HepG2; settings: Homo sapiens, 72 h; for inhibition at 3.3 µM: Compound concentration: 3.3 μM; for inhibition at 3.3 µM / inhibition at 10 µM: read-out: Antiproliferative activity in cancerous cells, HepG2 (inhibition of cell growth); for inhibition at 10 µM: Compound concentration: 10 μM
In short: as §1

SW480 (colon cancer) = experiment: Antiproliferative activity (CCK-8 cell viability), SW480; settings: Homo sapiens, 72 h, read-out: Antiproliferative activity in cancerous cells, SW480 (inhibition of cell growth); for inhibition at 3.3 µM: Compound concentration: 3.3 μM; for inhibition at 10 µM: Compound concentration: 10 μM
In short: as §1

[5] = system: A431 (epidermoid carcinoma); experiment: Antiproliferative activity (CCK-8 cell viability), A431; settings: Homo sapiens, 72 h, read-out: Antiproliferative activity in cancerous cells, A431 (inhibition of cell growth); for inhibition at 3.3 µM: A-431, Compound concentration: 3.3 μM; for inhibition at 10 µM: A-431, Compound concentration: 10 μM
In short: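 A431 epidermoid carcinoma cells grown in DMEM with 10% FBS were plated at 2,000-5,000 cells/well in 96-well plates. After attachment they were exposed to compound at 3.3 μM, 10 μM, or 30 μM for 72 h at 37° C. Viability was then assessed by CCK-8 against DMSO vehicle-treated wells.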

HeLa (cervical cancer) = experiment: Antiproliferative activity (CCK-8 cell viability), HeLa; settings: Homo sapiens, 72 h, read-out: Antiproliferative activity in cancerous cells, HELA (inhibition of cell growth); for inhibition at 3.3 µM: Compound concentration: 3.3 μM; for inhibition at 10 µM: Compound concentration: 10 μM
In short: as §1

| SMILES | inhibition at 10 µM [1] [%] | inhibition at 3.3 µM [2] [%] | inhibition at 10 µM [2] [%] | inhibition at 3.3 µM [3] [%] | inhibition at 10 µM [3] [%] | inhibition at 3.3 µM [4] [%] | inhibition at 10 µM [4] [%] | inhibition at 3.3 µM (HepG2 (liver cancer)) [%] | inhibition at 10 µM (HepG2 (liver cancer)) [%] | inhibition at 30 µM (HepG2 (liver cancer); Compound concentration: 30 μM, read-out: Antiproliferative activity in cancerous cells, HepG2) [%] | inhibition at 3.3 µM (SW480 (colon cancer)) [%] | inhibition at 10 µM (SW480 (colon cancer)) [%] | inhibition at 3.3 µM [5] [%] | inhibition at 10 µM [5] [%] | inhibition at 3.3 µM (HeLa (cervical cancer)) [%] | inhibition at 10 µM (HeLa (cervical cancer)) [%] |
| --- | --- | --- | --- | --- | --- | --- | --- | --- | --- | --- | --- | --- | --- | --- | --- | --- |
| COc1ccc2c(c1)C(CC(=O)O)=C(C)/C2=C/c1cccc(COc2ccc(F)cc2)c1 [B24, (Z)-2-(1-(3-((4-Fluorophenoxy)methyl)benzylidene)-5-methoxy-2-methyl-1H-inden-3-yl)acetic acid] | > 80 | 30 to 50 | ≥ 50 | < 30 | ≥ 50 | 30 to 50 | ≥ 50 | < 30 | < 30 | 30 to 50 | < 30 | < 30 | < 30 | < 30 | < 30 | < 30 |
| CC1=C(CC(=O)O)c2cc(F)ccc2/C1=C\c1ccccc1OCc1ccccc1 [B28, (Z)-2-(1-(2-(Benzyloxy)benzylidene)-5-fluoro-2-methyl-1H-inden-3-yl)acetic acid] | > 80 | 30 to 50 | ≥ 50 | < 30 | 30 to 50 | 30 to 50 | ≥ 50 | ≥ 50 | ≥ 50 |  | 30 to 50 | ≥ 50 | ≥ 50 | ≥ 50 | ≥ 50 | ≥ 50 |
| COc1ccc(/C=C2/C(C)=C(CC(=O)O)c3cc(F)ccc32)c(OCc2ccccc2)c1 [B29, (Z)-2-(1-(2-(Benzyloxy)-4-methoxybenzylidene)-5-fluoro-2-methyl-1H-inden-3-yl)acetic acid] | > 80 | < 30 | < 30 | < 30 | ≥ 50 | 30 to 50 | 30 to 50 | < 30 | ≥ 50 |  | < 30 | < 30 | < 30 | ≥ 50 | < 30 | ≥ 50 |
| COc1ccc2c(c1)/C(=C\c1ccc(Oc3ccc(F)cc3)cc1)C(C)=C2CC(=O)O [C1, (Z)-2-(1-(4-(4-Fluorophenoxy)benzylidene)-6-methoxy-2-methyl-1H-inden-3-yl)-acetic acid] | > 80 | < 30 | < 30 | 30 to 50 | ≥ 50 | ≥ 50 | ≥ 50 | < 30 | < 30 |  | ≥ 50 | ≥ 50 | 30 to 50 | ≥ 50 | ≥ 50 | ≥ 50 |
| COc1ccc2c(c1)/C(=C\c1ccc(Oc3ccc(F)cc3)cc1)C=C2CC(=O)O [C2, (Z)-2-(1-(4-(4-Fluorophenoxy)benzylidene)-6-methoxy-1H-inden-3-yl)acetic acid] | > 80 | < 30 | < 30 | < 30 | ≥ 50 | ≥ 50 | ≥ 50 | 30 to 50 | 30 to 50 |  | ≥ 50 | 30 to 50 | 30 to 50 | ≥ 50 | 30 to 50 | ≥ 50 |
